From patent EP0196574A2, “4,4'-Diaminodiphenyl compounds, process for their preparation and their use” (HOECHST AKTIENGESELLSCHAFT, priority 1985, dated 1986)

Test system: Salmonella typhimurium (Stämme TA 98, TA 100, TA 1535, TA 1537, TA 1538)
Test: Ames mutagenicity test
Assay type: cell-based
Details: strains TA 98, TA 100, TA 1535, TA 1537, TA 1538; ohne und in Gegenwart von S-9-Mix
Text: Die folgenden Beispiele sollen die Erfindung näher beschreiben. Der Mutagenitätstest wurde nach Ames mit Salmonella typhimurium (Stämme TA 98, TA 100, TA 1535, TA 1537, TA 1538) ohne und in Gegenwart von S-9-Mix durchgeführt (B.N. Ames et al., Mut. Res. Vol. 31, S. 347 - 364 (1975)).

Structure (SMILES)	Mutagenitätstest nach Ames
CC(C)COc1cc(-c2ccc(N)c(OCC(C)C)c2)ccc1N [Beispiel 2, 3,3'-Di-isobutoxybenzidin]	negativ
CC(C)c1cc(-c2ccc(N)c(C(C)C)c2)ccc1N [Beispiel 1, 3,3-Diisopropyl-benzidin-dichlorhydrat]	negativ
COCCOc1cc(-c2ccc(N)c(OCCOC)c2)ccc1N [Beispiel 3, 3,3'-Di-(2-methoxyethoxy)-benzidin]	negativ

Same assay, conditions: strains TA 98, TA 100, TA 1535, TA 1537, TA 1538; ohne und in Gegenwart von S-9-Mix; table of further examples

Structure (SMILES)	Ames-Test
CCCc1cc(-c2ccc(N)c(CCC)c2)ccc1N [Beispiel 4]	negativ
CCCCc1cc(-c2ccc(N)c(CCCC)c2)ccc1N [Beispiel 5]	negativ
CCC(C)c1cc(-c2ccc(N)c(C(C)CC)c2)ccc1N (stereo not shown) [Beispiel 7]	negativ
CC(C)Cc1cc(-c2ccc(N)c(CC(C)C)c2)ccc1N [Beispiel 6]	negativ
CC(C)Oc1cc(-c2ccc(N)c(OC(C)C)c2)ccc1N [Beispiel 9]	negativ
CCCOc1cc(-c2ccc(N)c(OCCC)c2)ccc1N [Beispiel 8]	negativ
CCC(C)Oc1cc(-c2ccc(N)c(OC(C)CC)c2)ccc1N (stereo not shown) [Beispiel 10]	negativ
